Data from PubChem BioAssay AID220 (DTP/NCI, 2004).
Several values for one entry are separate records, joined by “and”; a condition that tells them apart may be missing. Equal entries are not always repeated. Results filed as inconclusive are left out.

Tested on: CD8F1 mice, subcutaneous mammary adenocarcinoma, T/C%
Assay: NCI In Vivo Anticancer Drug Screen. Data for tumor model Mammary Adenocarcinoma CD8F1 (subcutaneous) in CD8F1
Conditions: higher = larger tumour
Summary of the method: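 Antitumor activity is assessed in transplantable-tumor mice by comparing the treated group with a vehicle-treated control group. Survival or tumor size serves as the measure, reported as T divided by C.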

[1] = endpoint: median tumor weight (est.), dose: 25.0 mg/kg/injection, schedule: Q07DX005 (ip), vehicle: saline
[2] = endpoint: median tumor weight (est.), dose: 2.0 mg/kg/injection, schedule: Q07DX005 (ip), vehicle: Klucel (hydroxypropylcellulose) (HPC)
[3] = endpoint: median tumor weight (est.), dose: 4.0 mg/kg/injection, schedule: Q07DX005 (ip), vehicle: Klucel (hydroxypropylcellulose) (HPC)
[4] = endpoint: median tumor weight (est.), dose: 8.0 mg/kg/injection, schedule: Q07DX005 (ip), vehicle: Klucel (hydroxypropylcellulose) (HPC)
[5] = endpoint: median tumor weight (est.), dose: 16.0 mg/kg/injection, schedule: Q07DX005 (ip), vehicle: Klucel (hydroxypropylcellulose) (HPC)

N=c1ccn2c(n1)OC1C(O)C(CO)OC12 (centres undefined)
T/C [1]: 80 % of control | T/C (endpoint: median tumor weight (est.), dose: 50.0 mg/kg/injection, schedule: Q07DX005 (ip), vehicle: saline): 159 % of control | T/C (endpoint: median tumor weight (est.), dose: 100.0 mg/kg/injection, schedule: Q07DX005 (ip), vehicle: saline): 111 % of control | T/C (endpoint: median tumor weight (est.), dose: 100.0 mg/kg/injection, schedule: Q07DX005 (ip), vehicle: suspension in saline): 81 % of control | T/C (endpoint: median tumor weight (est.), dose: 200.0 mg/kg/injection, schedule: Q07DX005 (ip), vehicle: saline): 53 % of control | T/C (endpoint: median tumor weight (est.), dose: 200.0 mg/kg/injection, schedule: Q07DX005 (ip), vehicle: suspension in saline): 109 % of control | T/C (endpoint: median tumor weight (est.), dose: 400.0 mg/kg/injection, schedule: Q07DX005 (ip), vehicle: saline): 22 % of control | T/C (endpoint: median tumor weight (est.), dose: 400.0 mg/kg/injection, schedule: Q07DX005 (ip), vehicle: suspension in saline): 70 % of control | T/C (endpoint: median tumor weight (est.), dose: 600.0 mg/kg/injection, schedule: Q07DX005 (ip), vehicle: saline): 21 % of control | T/C (endpoint: median tumor weight (est.), dose: 800.0 mg/kg/injection, schedule: Q07DX005 (ip), vehicle: suspension in saline): 52 % of control | T/C (endpoint: median tumor weight (est.), dose: 1600.0 mg/kg/injection, schedule: Q07DX005 (ip), vehicle: suspension in saline): 35 % of control

O=S(=O)(c1ccccc1)N1CN2CCN(C2)C1
T/C (endpoint: median tumor weight (est.), dose: 25.0 mg/kg/injection, schedule: Q07DX005 (ip), vehicle: saline with Tween-80): 55 % of control and 72 % of control | T/C (endpoint: median tumor weight (est.), dose: 200.0 mg/kg/injection, schedule: Q07DX005 (ip), vehicle: saline with Tween-80): 66 % of control and 79 % of control

Clc1ccc(C2SC=Cc3ccccc32)cc1 (centres undefined)
T/C (endpoint: median tumor weight change, dose: 62.0 mg/kg/injection, schedule: Q01DX001 (ip), vehicle: Klucel (hydroxypropylcellulose) (HPC)): 88 % of control | T/C (endpoint: median tumor weight change, dose: 250.0 mg/kg/injection, schedule: Q01DX001 (ip), vehicle: Klucel (hydroxypropylcellulose) (HPC)): 50 % of control and 54 % of control and 58 % of control

COc1cccc2c1C(=O)c1c(O)c3c(c(O)c1C2=O)C[C@@](O)(C(O)CO)C[C@@H]3OC1CC(N)C(O)C(C)O1 (some centres undefined)
T/C (endpoint: mean tumor weight, dose: 6.0 mg/kg/injection, schedule: Q07DX006 (ip), vehicle: saline): 33 % of control | T/C (endpoint: mean tumor weight, dose: 12.0 mg/kg/injection, schedule: Q07DX006 (ip), vehicle: saline): 45 % of control | T/C (endpoint: median tumor weight (est.), dose: 3.0 mg/kg/injection, schedule: Q07DX005 (ip), vehicle: saline): 77 % of control | T/C (endpoint: median tumor weight (est.), dose: 6.0 mg/kg/injection, schedule: Q07DX005 (ip), vehicle: saline): 48 % of control | T/C (endpoint: median tumor weight (est.), dose: 12.0 mg/kg/injection, schedule: Q07DX005 (ip), vehicle: saline): 26 % of control

CCC1CN2C(=N1)c1ccccc1-c1cc(Cl)ccc12 (centres undefined)
T/C (endpoint: median tumor weight (est.), dose: 3.12 mg/kg/injection, schedule: Q07DX005 (ip), vehicle: saline): 82 % of control | T/C (endpoint: median tumor weight (est.), dose: 3.12 mg/kg/injection, schedule: Q07DX005 (ip), vehicle: suspension in saline): 111 % of control | T/C (endpoint: median tumor weight (est.), dose: 6.25 mg/kg/injection, schedule: Q07DX005 (ip), vehicle: saline): 42 % of control | T/C (endpoint: median tumor weight (est.), dose: 12.5 mg/kg/injection, schedule: Q07DX005 (ip), vehicle: saline): 43 % of control | T/C (endpoint: median tumor weight (est.), dose: 12.5 mg/kg/injection, schedule: Q07DX005 (ip), vehicle: suspension in saline): 98 % of control | T/C [1]: 30 % of control | T/C (endpoint: median tumor weight (est.), dose: 25.0 mg/kg/injection, schedule: Q07DX005 (ip), vehicle: suspension in saline): 64 % of control | T/C (endpoint: median tumor weight (est.), dose: 50.0 mg/kg/injection, schedule: Q07DX005 (ip), vehicle: suspension in saline): 97 % of control

CCCC(=O)O.CCCC(=O)O.CCCC(=O)O.CCCC(=O)O.[Rh].[Rh]
T/C (endpoint: median tumor weight change, dose: 0.62 mg/kg/injection, schedule: Q01DX001 (ip), vehicle: saline + alcohol): 116 % of control | T/C (endpoint: median tumor weight change, dose: 1.25 mg/kg/injection, schedule: Q01DX001 (ip), vehicle: saline + alcohol): 81 % of control and 90 % of control | T/C (endpoint: median tumor weight change, dose: 2.5 mg/kg/injection, schedule: Q01DX001 (ip), vehicle: saline + alcohol): 56 % of control

CN=C(N)N/N=C(\C)c1ccc2c(c1)Cc1cc(/C(C)=N/NC(N)=NC)ccc1-2
T/C (endpoint: median tumor weight change, dose: 7.5 mg/kg/injection, schedule: Q01DX001 (ip), vehicle: saline with Tween-80): 112 % of control | T/C (endpoint: median tumor weight change, dose: 15.0 mg/kg/injection, schedule: Q01DX001 (ip), vehicle: saline with Tween-80): 102 % of control

COc1cc2cc(c1Cl)N(C)C(=O)CC(OC(=O)C(C)N(C)C(=O)C(C)C)C1(C)OC1C(C)C1CC(O)(NC(=O)O1)C(OC)/C=C/C=C(C)C2OC (centres undefined)
T/C (endpoint: median tumor weight change, dose: 16.0 micrograms/kg/injection, schedule: Q01DX001 (ip), vehicle: Klucel (hydroxypropylcellulose) (HPC)): 73 % of control | T/C (endpoint: median tumor weight change, dose: 32.0 micrograms/kg/injection, schedule: Q01DX001 (ip), vehicle: Klucel (hydroxypropylcellulose) (HPC)): 124 % of control | T/C (endpoint: median tumor weight change, dose: 64.0 micrograms/kg/injection, schedule: Q01DX001 (ip), vehicle: Klucel (hydroxypropylcellulose) (HPC)): 82 % of control | T/C (endpoint: median tumor weight change, dose: 128.0 micrograms/kg/injection, schedule: Q01DX001 (ip), vehicle: Klucel (hydroxypropylcellulose) (HPC)): 80 % of control | T/C (endpoint: median tumor weight change, dose: 256.0 micrograms/kg/injection, schedule: Q01DX001 (ip), vehicle: Klucel (hydroxypropylcellulose) (HPC)): 64 % of control

CC1CC(C)CC(C)C(O)/C(C#N)=C/C=C/CC(C2CCCC2C(=O)O)OC(=O)CC(O)C(C)C1 (centres undefined)
T/C (endpoint: median tumor weight (est.), dose: 0.5 mg/kg/injection, schedule: Q07DX005 (ip), vehicle: Klucel (hydroxypropylcellulose) (HPC)): 71 % of control | T/C (endpoint: median tumor weight (est.), dose: 1.0 mg/kg/injection, schedule: Q07DX005 (ip), vehicle: Klucel (hydroxypropylcellulose) (HPC)): 59 % of control | T/C [2]: 71 % of control | T/C (endpoint: median tumor weight (est.), dose: 3.0 mg/kg/injection, schedule: Q07DX005 (ip), vehicle: Klucel (hydroxypropylcellulose) (HPC)): 105 % of control | T/C [3]: 114 % of control | T/C (endpoint: median tumor weight (est.), dose: 6.0 mg/kg/injection, schedule: Q07DX005 (ip), vehicle: Klucel (hydroxypropylcellulose) (HPC)): 124 % of control | T/C [4]: 36 % of control | T/C (endpoint: median tumor weight (est.), dose: 12.0 mg/kg/injection, schedule: Q07DX005 (ip), vehicle: Klucel (hydroxypropylcellulose) (HPC)): 102 % of control | T/C [5]: 14 % of control

CCCCCCCCCCCCCCCC(=O)O[C@@]12C[C@@H](C)[C@@]3(O)[C@@H](C=C(CO)C[C@]4(O)C(=O)C(C)=C[C@@H]34)[C@@H]1C2(C)C
T/C (endpoint: median tumor weight (est.), dose: 0.06 mg/kg/injection, schedule: Q07DX005 (ip), vehicle: saline): 84 % of control | T/C (endpoint: median tumor weight (est.), dose: 0.12 mg/kg/injection, schedule: Q07DX005 (ip), vehicle: saline): 68 % of control | T/C (endpoint: median tumor weight (est.), dose: 0.25 mg/kg/injection, schedule: Q07DX005 (ip), vehicle: saline): 62 % of control | T/C (endpoint: median tumor weight (est.), dose: 0.5 mg/kg/injection, schedule: Q07DX005 (ip), vehicle: saline): 97 % of control | T/C (endpoint: median tumor weight (est.), dose: 1.0 mg/kg/injection, schedule: Q07DX005 (ip), vehicle: saline): 68 % of control

O=C(O)[C@H](Cc1ccccc1)N1C(=O)c2ccccc2C1=O
T/C (endpoint: median tumor weight change, dose: 62.5 mg/kg/injection, schedule: Q01DX001 (ip), vehicle: DMSO): 75 % of control | T/C (endpoint: median tumor weight change, dose: 125.0 mg/kg/injection, schedule: Q01DX001 (ip), vehicle: DMSO): 116 % of control | T/C (endpoint: median tumor weight change, dose: 250.0 mg/kg/injection, schedule: Q01DX001 (ip), vehicle: DMSO): 68 % of control | T/C (endpoint: median tumor weight change, dose: 500.0 mg/kg/injection, schedule: Q01DX001 (ip), vehicle: DMSO): 59 % of control

Nc1ncnc2nc[nH]c12
T/C (endpoint: median tumor weight (est.), dose: 64.0 mg/kg/injection, schedule: Q07DX005 (ip), vehicle: Klucel (hydroxypropylcellulose) (HPC)): 75 % of control and 77 % of control and 78 % of control | T/C (endpoint: median tumor weight (est.), dose: 512.0 mg/kg/injection, schedule: Q07DX005 (ip), vehicle: Klucel (hydroxypropylcellulose) (HPC)): 17 % of control and 31 % of control

C[C@]12CCC(=O)C=C1CC[C@@H]1[C@@H]2C(=O)C[C@@]2(C)[C@H]1CC[C@]2(O)C(=O)CO
T/C [2]: 68 % of control | T/C [3]: 91 % of control | T/C [4]: 97 % of control | T/C [5]: 71 % of control | T/C (endpoint: median tumor weight (est.), dose: 25.0 mg/kg/injection, schedule: Q07DX005 (ip), vehicle: Klucel (hydroxypropylcellulose) (HPC)): 80 % of control | T/C (endpoint: median tumor weight (est.), dose: 50.0 mg/kg/injection, schedule: Q07DX005 (ip), vehicle: Klucel (hydroxypropylcellulose) (HPC)): 67 % of control | T/C (endpoint: median tumor weight (est.), dose: 200.0 mg/kg/injection, schedule: Q07DX005 (ip), vehicle: Klucel (hydroxypropylcellulose) (HPC)): 35 % of control and 58 % of control | T/C (endpoint: median tumor weight change, dose: 500.0 mg/kg/injection, schedule: Q01DX001 (ip), vehicle: Klucel (hydroxypropylcellulose) (HPC)): 46 % of control and 64 % of control | T/C (endpoint: median tumor weight change, dose: 1000.0 mg/kg/injection, schedule: Q01DX001 (ip), vehicle: Klucel (hydroxypropylcellulose) (HPC)): 33 % of control and 49 % of control | T/C (endpoint: median tumor weight change, dose: 2000.0 mg/kg/injection, schedule: Q01DX001 (ip), vehicle: Klucel (hydroxypropylcellulose) (HPC)): 24 % of control and 44 % of control | T/C (endpoint: median tumor weight change, dose: 4000.0 mg/kg/injection, schedule: Q01DX001 (ip), vehicle: Klucel (hydroxypropylcellulose) (HPC)): -18 % of control
